Source: patent publication US20250144067A1, “PERSONALIZED STARVATION THERAPY FOR CANCER” (Faeth Therapeutics, Inc., priority 2021, published 2025)
Counter-ions that a name gives are not always drawn. Like-named read-outs stand apart in the source and are kept apart here.

How the values were obtained:
[1] = test system: NCI-H292 lung cancer cells; assay: FDA drug screening, complete media vs cholesterol-free media without statin (TABLE 1); type: cell-based, human
[2] = test system: NCI-H292 lung cancer cells; assay: FDA drug screening, complete media vs cholesterol-free media with simvastatin (TABLE 2); type: cell-based, human
[3] = Complete minus Cholesterol-free, >0 enhanced anti-cancer activity, about 0 neutral, <0 antagonist
[4] = NCI-H292 cells, cholesterol-free media without statin, FDA drug library screen
[5] = NCI-H292 cells, complete media, FDA drug library screen
[6] = NCI-H292 cells, FDA drug library screen, cholesterol-free media with simvastatin 0.04 μM
[7] = NCI-H292 cells, FDA drug library screen, complete media
[8] = complete media vs cholesterol-free media + simvastatin (0.04 μM), >0 enhanced anti-cancer activity, about 0 neutral, <0 antagonist
[9] = NCI-H292 cells, cholesterol-free media with simvastatin 0.04 μM, cell growth value in FDA drug screen
[10] = NCI-H292 cells, complete media, cell growth value in FDA drug screen
[11] = complete media minus cholesterol-free media + simvastatin, >0 enhanced anti-cancer activity, about 0 neutral, <0 antagonist
[12] = NCI-H292 cells, drug in cholesterol-free media with simvastatin 0.04 μM
[13] = Complete minus Cholesterol-free, […]
[14] = NCI-H292 cells, cholesterol-free media without statin
[15] = NCI-H292 cells, FDA library drug in cholesterol-free media with simvastatin 0.04 μM
[16] = NCI-H292 cells, FDA library drug in complete media
[17] = complete media vs cholesterol-free media + simvastatin (0.04 μM), […]
[18] = NCI-H292 cells, cholesterol-free media with simvastatin 0.04 μM, FDA drug library screen (TABLE 2)
[19] = complete media minus cholesterol-free media + simvastatin (0.04 μM), >0 enhanced anti-cancer activity, about 0 neutral, <0 antagonist
[20] = NCI-H292 cells in cholesterol-free media without statin
[21] = NCI-H292 cells in complete media
[22] = complete vs cholesterol-free media, greater than 0 enhanced anti-cancer activity, about 0 neutral, below 0 antagonists
[23] = complete vs cholesterol-free media, >0 enhanced anti-cancer activity, about 0 neutral, <0 antagonist

Row | Compound | Difference [1, 3] | Cholesterol-free [1, 4] | Complete [1, 5] | Cholesterol-free media + simvastatin (0.04 μM) [2, 6] | Complete Media [2, 7] | Difference [2, 8] | Cholesterol-free [1, 14] | Complete ([1]; NCI-H292 cells, complete media) | also measured
1 | Nc1ccn([C@@H]2O[C@H](CO)[C@@H](O)[C@@H]2O)c(=O)n1 [Cytarabine] | −0.05 | 0.08949 | 0.04199 | 0.2698 | 0.1951 | −0.07 | – | – | –
2 | O=c1c(O[C@@H]2O[C@H](CO)[C@H](O)[C@H](O)[C@H]2O)c(-c2ccc(O)c(O)c2)oc2cc(O)cc(O)c12 [Hyperoside] | −0.03 | 0.9192 | 0.8906 | 0.9665 | 0.8144 | −0.15 | – | – | –
3 | (S)-Timolol (Maleate) | −0.04 | 1.235 | 1.191 | – | – | – | – | – | Cholesterol-free media + simvastatin (0.04 μM) [2, 9]: 1.237; Complete Media [2, 10]: 1.285; Difference [2, 11]: 0.05
4 | CCCCCCc1ccc(O)cc1O [Hexylresorcinol] | 0.00 | 1.034 | 1.036 | – | – | −0.17 | – | – | Cholesterol-free media + simvastatin (0.04 μM) [2, 12]: 1.514; Complete Media ([2]; NCI-H292 cells, drug in complete media): 1.344
5 | C[n+]1ccccc1/C=N/O.[Cl-] [Pralidoxime (chloride)] | – | – | – | – | – | – | 1.203 | 0.8976 | Difference [1, 13]: −0.31; Cholesterol-free media + simvastatin (0.04 μM) [2, 15]: 1.051; Complete Media [2, 16]: 0.7574; Difference [2, 17]: −0.29
6 | O=C(O)c1cc(/N=N/c2ccc(O)c(C(=O)O)c2)ccc1O [Olsalazine (Disodium)] | −0.25 | – | – | – | – | – | 1.211 | 0.9604 | Cholesterol-free media + simvastatin (0.04 μM) [2, 18]: 1.218; Difference [2, 19]: −0.07
7 | CC(=O)[C@H]1CC[C@H]2[C@@H]3CC=C4C[C@@H](O)CC[C@]4(C)[C@H]3CC[C@]12C [Pregnenolone] | – | – | – | – | – | – | – | – | Difference [1, 13]: −0.56; Cholesterol-free [1, 20]: 1.529; Complete [1, 21]: 0.9655; Cholesterol-free media + simvastatin (0.04 μM) [2, 15]: 1.424; Complete Media [2, 16]: 0.9118; Difference [2, 17]: −0.51
8 | CN1C(=O)COc2c(C(=O)NC3CN4CCC3CC4)cc(Cl)cc21 (stereo not shown) [Azasetron (hydrochloride)] | −0.07 | 0.8277 | 0.7612 | – | – | – | – | – | Cholesterol-free media + simvastatin (0.04 μM) [2, 9]: 0.9264; Complete Media [2, 10]: 0.9552; Difference [2, 11]: 0.03
9 | CCCCOc1ccc(C(=O)CCN2CCCCC2)cc1 [Dyclonine (hydrochloride)] | – | – | – | – | – | – | 1.119 | 0.7824 | Difference [1, 22]: −0.34; Cholesterol-free media + simvastatin (0.04 μM) [2, 9]: 0.8623; Complete Media [2, 10]: 0.9661; Difference [2, 11]: 0.10
10 | Cn1cc[nH]c1=S [Methimazole] | −0.20 | – | – | 1.144 | 1.001 | −0.14 | 1.024 | 0.8245 | –
11 | CCCCCCCCCCC[C@@H](C[C@@H]1OC(=O)[C@H]1CCCCCC)OC(=O)[C@H](CC(C)C)NC=O [Orlistat] | – | 1.018 | 1.513 | 1.19 | 1.622 | – | – | – | Difference [1, 23]: 0.49; Difference [2, 11]: 0.43
12 | COc1cc(Nc2ncc(F)c(Nc3ccc4c(n3)N(COP(=O)(O)O)C(=O)C(C)(C)O4)n2)cc(OC)c1OC [Fostamatinib] | −0.29 | – | – | – | – | −0.36 | 0.7013 | 0.4125 | Cholesterol-free media + simvastatin (0.04 μM) [2, 15]: 1.406; Complete Media [2, 16]: 1.042
13 | Nc1nc(/C(=C/CC(=O)O)C(=O)N[C@@H]2C(=O)N3C(C(=O)O)=CCS[C@H]23)cs1 [Ceftibuten (dihydrate)] | – | 0.6461 | 1.242 | 1.353 | 1.195 | −0.16 | – | – | Difference [1, 23]: 0.60
14 | O=C(O)COCCN1CCN(C(c2ccccc2)c2ccc(Cl)cc2)CC1 (stereo not shown) [Cetirizine (dihydrochloride)] | −0.28 | – | – | – | – | – | 1.185 | 0.9092 | Cholesterol-free media + simvastatin (0.04 μM) [2, 9]: 0.9045; Complete Media [2, 10]: 0.9315; Difference [2, 11]: 0.03
15 | CNC(=C[N+](=O)[O-])NCCSCc1csc(CN(C)C)n1 [Nizatidine] | −0.23 | – | – | 1.118 | 0.9809 | −0.14 | 1.253 | 1.026 | –
16 | CCCC1O[C@@H]2C[C@H]3[C@@H]4CCC5=CC(=O)C=C[C@]5(C)[C@H]4[C@@H](O)C[C@]3(C)[C@]2(C(=O)CO)O1 (stereo partly shown) [Budesonide] | – | 0.6924 | 1.034 | – | – | −0.61 | – | – | Difference [1, 23]: 0.34; Cholesterol-free media + simvastatin (0.04 μM) [2, 15]: 1.254; Complete Media [2, 16]: 0.6405
17 | C=C1CC[C@H](O)C/C1=C/C=C1\CCC[C@]2(C)[C@@H]([C@H](C)/C=C/[C@H](C)C(C)C)CC[C@@H]12 [Vitamin D2] | – | – | – | 1.05 | 0.9687 | −0.08 | – | – | Difference ([1]; Complete minus Cholesterol-free, greater than 0 enhanced anti-cancer activity, about 0 neutral, below 0 antagonists): −0.62; Cholesterol-free [1, 20]: 1.409; Complete [1, 21]: 0.7927
18 | C[N+]1(CC2CC2)[C@@H]2C[C@@H](OC(=O)[C@H](CO)c3ccccc3)C[C@H]1[C@@H]1O[C@@H]12.[Br-] (stereo partly shown) [Cimetropium (Bromide)] | – | – | – | – | – | – | – | – | Cholesterol-free [1]: 0.8786; Complete [1]: 0.8182; Difference [1]: −0.06; Cholesterol-free media + simvastatin (0.04 μM) [2]: 1.704; Complete Media [2]: 1.429; Difference [2]: −0.28
19 | Cc1c(C(=O)Nc2ccc(N3C[C@@H](C)O[C@@H](C)C3)nc2)cccc1-c1ccc(OC(F)(F)F)cc1 [Sonidegib] | – | 0.6523 | 0.8188 | – | – | – | – | – | Difference [1, 23]: 0.17; Cholesterol-free media + simvastatin (0.04 μM) [2, 9]: 1.12; Complete Media [2, 10]: 1.188; Difference [2, 11]: 0.07
20 | Cc1nnc(C(=O)NC(C)(C)c2nc(C(=O)NCc3ccc(F)cc3)c(O)c(=O)n2C)o1 [Raltegravir] | – | – | – | – | – | – | – | – | Cholesterol-free [1]: 1.135; Complete [1]: 0.9505; Difference [1]: −0.18; Cholesterol-free media + simvastatin (0.04 μM) [2]: 1.209; Complete Media [2]: 1.119; Difference [2]: −0.09
21 | C[C@H](O)C(=O)Nc1c(I)c(C(=O)NC(CO)CO)c(I)c(C(=O)NC(CO)CO)c1I [Iopamidol] | – | – | – | – | – | −0.42 | – | – | Difference ([1]; Complete minus Cholesterol-free, greater than 0 enhanced anti-cancer activity, about 0 neutral, below 0 antagonist): −0.15; Cholesterol-free ([1]; NCI-H292 cells, FDA drug library screen, cholesterol-free media without statin): 1.136; Complete [1, 7]: 0.9871; Cholesterol-free media + simvastatin (0.04 μM) [2, 15]: 1.516; Complete Media [2, 16]: 1.092
22 | Ketanserin (tartrate) | 0.03 | 0.9853 | 1.019 | – | – | −0.22 | – | – | Cholesterol-free media + simvastatin (0.04 μM) [2, 12]: 1.267
23 | CCn1cc(C(=O)O)c(=O)c2cnc(N3CCNCC3)nc21 [Pipemidic acid] | – | – | – | – | – | – | 1.181 | 0.8267 | Difference [1, 22]: −0.35; Cholesterol-free media + simvastatin (0.04 μM) [2, 18]: 1.008; Complete Media ([2]; NCI-H292 cells, complete media, FDA drug library screen (TABLE 2)): 0.9896; Difference [2, 19]: −0.02
